In the supplement of paper PMC10307832:

What was measured:
Assay in all cases: relative viability (nuclei count vs DMSO), 5 days (fraction); higher = more cells survive
[1] = compound: C=CCNC1=C2C[C@@H](C)C[C@H](OC)[C@H](O)[C@@H](C)/C=C(\C)[C@H](OC(N)=O)[C@@H](OC)/C=C\C=C(/C)C(=O)NC(=CC1=O)C2=O [17-AAG] + CCNC(=O)c1noc(-c2cc(C(C)C)c(O)cc2O)c1-c1ccc(CN2CCOCC2)cc1 [Luminespib] (partner 0.01 µM)
Procedure, shortened: (§1)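 The day after seeding in 1536-well plates, lung cancer cell lines were treated by pin tool with a single drug, or with a fixed anchor-drug dose together with five library-drug doses (not always all listed) in √10 steps. After 5 days, a combined fix-and-stain solution (final 0.05% Triton X-100, 1% formaldehyde, 1 ug/ml Hoechst) was added. Nuclei counted on 4× images gave relative viability as treated counts over vehicle counts, reported as the median of duplicate plates.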

[2] = compound: C=CCNC1=C2C[C@@H](C)C[C@H](OC)[C@H](O)[C@@H](C)/C=C(\C)[C@H](OC(N)=O)[C@@H](OC)/C=C\C=C(/C)C(=O)NC(=CC1=O)C2=O [17-AAG] + Cc1cc(Nc2cc(N3CCN(C)CC3)nc(Sc3ccc(NC(=O)C4CC4)cc3)n2)n[nH]1 [Tozasertib] (partner 0.1 µM)
Procedure, shortened: as §1

[3] = compound: C=CCNC1=C2C[C@@H](C)C[C@H](OC)[C@H](O)[C@@H](C)/C=C(\C)[C@H](OC(N)=O)[C@@H](OC)/C=C\C=C(/C)C(=O)NC(=CC1=O)C2=O [17-AAG] + Cc1nc(NC(=O)N2CCC[C@H]2C(N)=O)sc1-c1ccnc(C(C)(C)C(F)(F)F)c1 [Alpelisib] (partner 2 µM)
Procedure, shortened: as §1

[4] = compound: C=CCNC1=C2C[C@@H](C)C[C@H](OC)[C@H](O)[C@@H](C)/C=C(\C)[C@H](OC(N)=O)[C@@H](OC)/C=C\C=C(/C)C(=O)NC(=CC1=O)C2=O [17-AAG] + Cc1nc(Nc2ncc(C(=O)Nc3c(C)cccc3Cl)s2)cc(N2CCN(CCO)CC2)n1 [Dasatinib] (partner 0.075 µM)
Procedure, shortened: as §1

Cell Line	relative viability ([1]; first compound 0.00128 µM)	relative viability ([1]; first compound 0.004048 µM)	relative viability ([1]; first compound 0.0128 µM)	relative viability ([1]; first compound 0.04048 µM)	relative viability ([1]; first compound 0.128 µM)	relative viability ([2]; first compound 0.00128 µM)	relative viability ([2]; first compound 0.004048 µM)	relative viability ([2]; first compound 0.0128 µM)	relative viability ([2]; first compound 0.04048 µM)	relative viability ([2]; first compound 0.128 µM)	relative viability ([3]; first compound 0.00128 µM)	relative viability ([3]; first compound 0.004048 µM)	relative viability ([3]; first compound 0.0128 µM)	relative viability ([3]; first compound 0.04048 µM)	relative viability ([3]; first compound 0.128 µM)	relative viability ([4]; first compound 0.00128 µM)	relative viability ([4]; first compound 0.004048 µM)	relative viability ([4]; first compound 0.0128 µM)	relative viability ([4]; first compound 0.04048 µM)	relative viability ([4]; first compound 0.128 µM)
NCI-H1651	0.884	0.774	0.394	0.213	0.186	0.778	0.667	0.612	0.302	0.14	0.972	0.895	0.902	0.27	0.157	0.486	0.415	0.206	0.186	0.111
NCI-H1666	1	0.86	0.474	0.296	0.342	0.589	0.599	0.46	0.343	0.294	0.949	0.713	0.299	0.216	0.214	0.783	0.718	0.309	0.35	0.295
NCI-H1734	0.197	0.18	0.167	0.143	0.16	0.272	0.293	0.224	0.161	0.125	0.708	0.759	0.716	0.289	0.16	0.482	0.445	0.356	0.176	0.105
NCI-H1755	0.479	0.444	0.364	0.273	0.223	0.609	0.477	0.481	0.363	0.215	0.957	0.945	0.891	0.652	0.254	0.478	0.401	0.324	0.213	0.118
NCI-H1793	0.191	0.149	0.136	0.16	0.169	0.385	0.313	0.398	0.154	0.123	0.846	0.612	0.356	0.198	0.167	0.437	0.243	0.14	0.122	0.129
NCI-H1915	0.682	0.659	0.548	0.418	0.0942	0.455	0.442	0.401	0.392	0.111	1.05	1.06	1.04	1.02	0.458	0.29	0.322	0.218	0.115	0.0794
NCI-H1944	0.595	0.603	0.565	0.219	0.151	0.239	0.248	0.219	0.213	0.138	0.883	0.88	0.85	0.682	0.281	0.198	0.199	0.175	0.158	0.15
NCI-H1975	0.198	0.175	0.14	0.176	0.139	0.796	0.587	0.145	0.12	0.0964	0.583	0.365	0.147	0.139	0.124	0.315	0.247	0.121	0.104	0.0938
NCI-H1993	0.919	0.625	0.516	0.273	0.423	0.56	0.591	0.585	0.42	0.453	0.722	0.657	0.658	0.528	0.434	0.548	0.607	0.344	0.387	0.344
NCI-H2009	0.983	0.983	0.871	0.354	0.0842	0.727	0.72	0.756	0.65	0.259	1.13	1.19	1.13	0.853	0.366	0.313	0.298	0.304	0.229	0.0827
NCI-H2023	0.52	0.25	0.228	0.0785	0.0689	0.51	0.351	0.102	0.0765	0.0654	0.582	0.66	0.273	0.0878	0.0906	0.572	0.281	0.0632	0.0704	0.059
NCI-H2085	0.521	0.447	0.462	0.345	0.314	0.798	0.673	0.71	0.799	0.679	0.825	1	0.934	0.852	0.671	0.184	0.271	0.243	0.292	0.298
NCI-H2087	0.17	0.158	0.159	0.131	0.0988	0.306	0.228	0.208	0.148	0.1	1.16	0.904	0.308	0.189	0.165	0.872	0.49	0.0992	0.13	0.0882
NCI-H2126	0.681	0.499	0.261	0.243	0.292	0.9	0.842	0.44	0.26	0.298	0.757	0.792	0.742	0.714	0.303	0.596	0.515	0.202	0.22	0.243
NCI-H2170	0.696	0.502	0.374	0.137	0.151	0.739	0.77	0.65	0.327	0.173	0.821	0.723	0.426	0.244	0.178	0.623	0.663	0.275	0.123	0.111
